From US10435361B2, “Kinase inhibitors” (Topivert Pharma Limited, priority 2013, dated 2019) come the findings set out here.

SMILES strings stand for the structures.

For series [1], the system named is PBMCs. Briefly: LPS-induced TNFα/IL-8 release in PBMC cells. The conditions noted are these: Homo sapiens, assay (b). The series is classed as cell-based. The gist of the method: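 Healthy-donor PBMCs isolated by density gradient were pretreated with compound for 2 h, then stimulated with 1 ng/mL LPS (E. coli 0111:B4) for 24 h at 37° C., 5% CO2. IL-8 and TNFα in supernatants measured by sandwich ELISA.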

Series [2] concerns PBMCs. Briefly: IL-2 and IFN gamma release in CD3/CD28 stimulated PBMC cells. In kind it is cell-based. The conditions noted are these: Homo sapiens, assay (c). The gist of the method: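 Healthy-donor PBMCs, density-gradient isolated, stimulated on plates pre-coated with anti-CD3 (0.3 μg/mL) and anti-CD28 (3 μg/mL) antibodies, with compound, for 3 days under standard culture conditions. IC50 derived from the dose-response curve.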

Series [3] relates to HT29 cells. The series can be described thus: IL-1β-induced IL-8 release in HT29 cells. In kind it is cell-based. The note with it: Homo sapiens, HT-29, assay (d), read-out: IC50 Values for Inhibition of Cytokine Release HT29 cells IL-8. Here is the method:
HT29 cells, a human colon adenocarcinoma cell line, are plated in a 96 well plate (24 hr) and pre-treated with compounds at the desired concentration for 2 hours before addition of 5 ng/mL of IL-1β (Abcam) for 24 hours. Supernatants are harvested for IL-8 quantification by Sandwich ELISA (Duo-set, R&D System). The IC50 is determined from the dose response curve.

In series [4] the test system is BDF1 mice. Briefly: TNBS-induced colitis in mice. The series is classed as in vivo. The conditions noted are these: conducted over 2 days; vehicle corn oil/transcutol/maisine/cremophor ELP. Here is the method:
Non-fasted, 10-12 week old, male BDF1 mice are dosed by oral gavage twice daily with either vehicle (5 mL/kg), reference item (Budesonide 2.5 mg/kg) or test compound (1 or 5 mg/kg) one day before (Day −1) stimulation of the inflammatory response by treatment with 2,4,6-trinitrobenzenesulphonic acid (TNBS) (15 mg/mL in 50% ethanol/50% saline). On Day 0 of the study TNBS (200 μL) is administered intra-colonically via a plastic catheter with BID dosing of the vehicle, reference or test compound continuing for 2 or 4 days. During the study, animals are weighed every day and stool observations are made and recorded as a score, based on stool consistency. At the time of sacrifice on Day 2 (or Day 4), the large intestine is removed and the length and weight recorded. Sections of the colon are taken for histopathology scoring to determine disease severity.

The test system of series [5] is SCID animals. Briefly: Adoptive transfer in mice (CD45RBhigh cells into SCID animals). In kind it is in vivo. The conditions noted are these: for % Inhibition: Table 6a, inhibition of the induction window between naïve and vehicle animals; for levels of pro-inflammatory cytokines in samples of colon tissue: adoptive transfer model. Here is the method: On Study day 0, female Balb/C mice are terminated and spleens obtained for CD45RB^high cell isolation (Using SCID IBD cell Separation protocol). Approximately 4×10^5 cells/mL CD45RB^high cells are then injected intraperitoneally (100 μL/mouse) into female SCID animals. On study day 14, mice are weighed and randomized into treatment groups based on body weight. On Day 14, compounds are administered BID, via oral gavage, in a peanut oil vehicle at the dose levels outlined below in Tables 6a and 6b and a dose volume of 5 mL/kg. Treatment continues until study day 42, at which point the animals are necropsied 4 hours after the morning administration. The colon length and weight are recorded and used as a secondary endpoint in the study as a measurement of colon oedema. The colon is then divided into six cross-sections, four of which are used for histopathology scoring (primary endpoint) and two are homogenised for cytokine analysis. Data shown is the % inhibition of the induction window between naïve animals and vehicle animals, where higher inhibition implies closer to the non-diseased, naïve, phenotype.

Series [6] in a line: Plasma pharmacokinetics in rats, single intravenous or oral administration. The series is classed as in vivo. The note with it: male, Wistar, rat; for clearance: rats, intravenous 0.25 mg/kg. Here is the method:
Studies were conducted by Sai Life Sciences (Hinjewadi, Pune, India) to investigate the plasma pharmacokinetics and total colon tissue distribution of compounds of the invention. In particular, pharmacokinetic studies were carried out in: • male C57BL/6 mice, following a single oral administration; and • male Wistar rats following a single intravenous or oral administration.

The test system of series [7] is Salmonella typhimurium TA98. The series can be described thus: Bacterial reverse mutation screen, strain TA98. The series is classed as cell-based. The note with it: presence or absence of S-9 mix; up to 1000 μg/plate analysable. As for the experimental part: (§1) Studies were conducted by Sequani (Ledbury, Herefordshire, UK) to assess compounds of the invention for their ability to induce mutations in two histidine dependent auxotrophic mutants of Salmonella typhimurium, strains TA98 and TA100 in vitro.
(§2) The mutation screen was conducted using the plate incorporation method and was performed in both the presence and absence of S-9 mix (a liver post-mitochondrial fraction derived from the livers of Aroclor 1254 treated rats). The bacteria were exposed to test compounds dissolved in dimethylsulphoxide, which solvent was also used as the negative control. The dose levels used were 0.32, 1.6, 8, 40, 200, 1000 or 5000 μg/plate.
(§3) Precipitation was also noted in both strains at 1000 μg/plate in the presence and absence of S-9 mix.

For series [8], the system named is Salmonella typhimurium TA100. Briefly: Bacterial reverse mutation screen, strain TA100. The series is classed as cell-based. The conditions noted are these: presence or absence of S-9 mix; up to 1000 μg/plate analysable. Here is the method:
as §1, §2, §3

Series [9] can be described thus: Hydrolytic stability study (DMSO/water 3:1, 60° C.). In kind it is physicochemical. Here is the method:
Chemical stability of compounds of the invention was assessed in a mixture of DMSO and water (3:1) at a test compound concentration of 1 mg/mL
Agilent, Waters X-Select C18, 2.5 μm, 4.6×30 mm column, 4 min method, 5-95%
MeCN/water (0.1% formic acid).
Column Oven Temperature 40° C.
Sample Preparation • A 1.0 mg sample of test compound was dissolved in 750 μL of DMSO. Water (250 μL) was added slowly, ensuring no precipitation occurred.
Recording Stability • A 50 μL aliquot of the test solution was removed and analysed in duplicate by 5 μL HPLC injections. The peak area for the test compound was recorded following manual integration of the corresponding UV trace. • The test solution was heated to 60° C., with stirring, and 50 μL aliquots removed for HPLC analysis at 5 and 24 h timepoints.

Where [10] appears, read: read-out: IC50 Values for Inhibition of Cytokine Release PBMCs IL-8.
Where [11] appears, read: read-out: IC50 Values for Inhibition of Cytokine Release PBMCs IFNγ.
Where [12] appears, read: read-out: IC50 Values for Inhibition of Cytokine Release PBMCs IL-2.
Where [13] appears, read: po, 5 mg/kg, read-out: Median plasma concentration.

By IC50 is commonly meant the concentration that inhibits the measured activity by half. Usually % Inhibition stands for the change of the read-out against control, counted positive when it falls.

Take `COc1cc(Nc2cc(Oc3ccc(NC(=O)Nc4cc(C(C)(C)C)cc(NS(C)(=O)=O)c4OC)c4ccccc34)ccn2)cc(C(=O)NCCN2CCOCC2)c1` [Example 27, 3-((4-((4-(3-(5-(tert-Butyl)-2-methoxy-3-(methylsulfonamido)phenyl)ureido)naphthalen-1-yl)oxy)pyridin-2-yl)amino)-5-methoxy-N-(2-morpholinoethyl)benzamide]: the IC50 worked out at 1.9 nM in series [1] (setting [10]), 11 nM in series [2] (setting [11]), 46.3 nM in series [2] (setting [12]) and 8.3 nM in series [3]. In addition, in series [4], the “activity in TNBS-induced colitis (histopathology analysis)” value (shortened to “activity … (histopathology analysis)”) was “displayed substantial activity”. For the same molecule, the “% Inhibition” value in series [5] (3 mg/kg BID oral gavage) was found to be 99%. In addition, the “levels of pro-inflammatory cytokines in samples of colon tissue” value (from here on “levels of pro-inflammatory cytokines”) in [5] is “significantly reduced”. This molecule came in with a clearance in series [6] of 7.1 mL/min/kg. Besides, the “increases in revertant colonies, strain TA98” value (shortened to “increases … strain TA98”) in series [7] was “no dose-related or statistically significant increases in revertant colonies”. Further, the “increases in revertant colonies, strain TA100” value (shortened to “increases … strain TA100”) in series [8] is on record as “no dose-related or statistically significant increases in revertant colonies”. The “% Parent Remaining” value in [9] (DMSO/water 3:1, 0 min) was 100%.

Take `COCCOCCOCCOc1cc(Nc2nccc(Oc3ccc(NC(=O)Nc4cc(C(C)(C)C)cc(NS(C)(=O)=O)c4OC)c4ccccc34)n2)cc(OC)c1` [Example 4, N-(5-(tert-Butyl)-2-methoxy-3-(3-(4-((2-((3-methoxy-5-(2-(2-(2-methoxyethoxy)ethoxy)-ethoxy)phenyl)amino)pyrimidin-4-yl)oxy)naphthalen-1-yl)ureido)phenyl)methanesulfonamide]: the IC50 in series [1] (setting [10]) was 1.4 nM; in [1] (read-out: IC50 Values for Inhibition of Cytokine Release PBMCs TNFα), 0.7 nM; in [2] (setting [11]), 4.2 nM; in series [2] (setting [12]), 40.5 nM; in series [3], 4.9 nM. The “activity … (histopathology analysis)” value in series [4] is given as “displayed substantial activity”. Further, the “% Inhibition” value in series [5] (0.3 mg/kg BID oral gavage) was found to be 62%; in series [5] (1 mg/kg BID oral gavage), 110%. Moreover, the “levels of pro-inflammatory cytokines” value in [5] is given as “significantly reduced”. For the same molecule, in series [6], the clearance worked out at 7.9 mL/min/kg. In addition, the “increases … strain TA98” value in [7] is “no dose-related or statistically significant increases in revertant colonies”. Also, in series [8], the “increases … strain TA100” value is listed as “no dose-related or statistically significant increases in revertant colonies”. In series [9] (DMSO/water 3:1, 0 min), the “% Parent Remaining” value is reported as 100%.

With `C#Cc1cc(Nc2nccc(Oc3ccc(NC(=O)Nc4cc(C(C)(C)C)cc(NS(C)(=O)=O)c4OC)c4ccccc34)n2)cc(C(=O)NCCOCCOCCOC)c1` [Example 16, 3-((4-((4-(3-(5-(tert-Butyl)-2-methoxy-3-(methylsulfonamido)phenyl)ureido)naphthalen-1-yl)oxy)pyrimidin-2-yl)amino)-5-ethynyl-N-(2-(2-(2-methoxyethoxy)ethoxy)ethyl)benzamide], in series [1] (setting [10]), the IC50 came to 1.5 nM. The IC50 in series [2] (setting [11]) stood at 7.3 nM. Also, the IC50 in series [2] (setting [12]) stood at 74 nM. Moreover, in [3], the IC50 amounted to 8 nM. Also, the “activity … (histopathology analysis)” value in series [4] is recorded as “displayed substantial activity”. The “levels of pro-inflammatory cytokines” value in series [5] was “significantly reduced”. Also, the “activity in adoptive transfer model (ratios of colon weight to length)” value in series [5] (end of the study) is recorded as “displayed significant activity”. In series [6] (setting [13]), the concentration at 0.25 h stood at 0 ng/mL, the concentration at 0.5 h worked out at 0 ng/mL, the concentration at 1 h was determined as 0 ng/mL and the concentration at 2 h came out at 0 ng/mL. Moreover, in series [6] (setting [13]), the concentration at 4 h was 0 ng/mL, the concentration at 6 h is 0 ng/mL, the concentration at 8 h stood at 0 ng/mL and the concentration at 12 h stood at 0 ng/mL. Moreover, the concentration at 24 h in [6] (setting [13]) worked out at 0 ng/mL. The molecule also yielded a clearance in series [6] of 4.8 mL/min/kg. For the same molecule, the “increases … strain TA98” value in series [7] is reported as “no dose-related or statistically significant increases in revertant colonies”. In addition, the “increases … strain TA100” value in [8] was “no dose-related or statistically significant increases in revertant colonies”. Besides, the “% Parent Remaining” value in [9] (DMSO/water 3:1, 0 min) was determined as 100%. Further, in series [9] (DMSO/water 3:1, 60° C., 300 min), the “% Parent Remaining” value amounted to 100%. Also, the “% Parent Remaining” value in series [9] (DMSO/water 3:1, 60° C., 1440 min) stood at 100%.
